Measurements taken from ChEMBL document CHEMBL1201862, “PubChem BioAssay data set” (2004).
Calls of active or inactive are those of the source.

Columns and labels:
[1] = inhibitors of firefly luciferase expression or activity, dose response, H4 neuroglioma cells, luminescence (AID 1990); assay type: functional, cell-based
[2] = tested on: BJ; test: cytotoxicity toward BJ-TERT fibroblasts, dose response, cell-based, RAS-independent, luminescence (AID 1933); assay type: functional; details: Homo sapiens
[3] = Luminescence Cell-Based Dose Response HTS to Identify Inhibitors of 5'UTR Stem-Loop Driven Prion Protein mRNA Translation in H4 Neuroglioblastoma Cells. [Related pubchem assays: 1827 (Project Summary), 1813 (Primary HTS)]; assay type: functional
[4] = inhibitors of SNCA 5'UTR-driven reporter translation, confirmation, H4 neuroglioma cells, luminescence (AID 1988); assay type: functional, cell-based
[5] = tested on: BJ; test: cells; assay type: functional, cell-based; details: Homo sapiens
[6] = tested on: BJ; test: cytotoxicity toward BJ-TERT-LT-ST fibroblasts, dose response, cell-based, RAS-independent, luminescence (AID 1935); assay type: functional; details: Homo sapiens;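 also: BJ fibroblasts immortalized with TERT plus LT and ST oncogenes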
[7] = cytotoxicity toward DRD oncogenic fibroblasts, dose response, cell-based, non-viral oncogenic, luminescence (AID 1934); assay type: functional; details: Homo sapiens
[8] = molecular target: T1, Calpain-2 catalytic subunit (Sus scrofa, UniProt P43367); test: pig calpain II inhibitor potency, dose response, biochemical, fluorogenic peptide substrate (AID 1420); assay type: functional
T1 sequence (P43367 whole entry): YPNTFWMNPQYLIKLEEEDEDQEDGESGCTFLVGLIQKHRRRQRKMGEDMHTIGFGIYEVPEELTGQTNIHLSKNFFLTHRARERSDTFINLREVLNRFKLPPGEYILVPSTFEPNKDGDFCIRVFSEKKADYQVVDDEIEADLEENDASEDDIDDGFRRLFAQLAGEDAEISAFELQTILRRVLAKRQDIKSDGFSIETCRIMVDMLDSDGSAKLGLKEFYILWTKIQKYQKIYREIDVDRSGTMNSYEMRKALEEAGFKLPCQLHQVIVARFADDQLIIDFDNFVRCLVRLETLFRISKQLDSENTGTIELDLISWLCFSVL

[9] = cells; assay type: functional, cell-based
[10] = cells; assay type: functional, cell-based; remark: listed apart in the source
[11] = inhibitors of intracellular T. cruzi replication, confirmation, NIH3T3 host cells, beta-gal luminescence (AID 2044); assay type: functional, cell-based;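 also: intracellular parasites grown in NIH/3T3 mouse fibroblasts as host cells; luminescent beta-galactosidase reporter signal from transgenic T. cruzi replicating inside host cells; inhibitors lower the luminescence signal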
[12] = growth suppression of PTEN-null colon cells, dose response, cell-based, HCT116 PTEN knockout (AID 1047); assay type: functional;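 also: HCT116 colon tumor cells with PTEN knocked out; cells exposed to compound for 60 hours before readout; potency for loss of cell viability measured by luminescence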
[13] = cytotoxicity toward NIH3T3 fibroblasts, dose response, counter-screen, cell-based, ATP luminescence, mouse fibroblasts (AID 2010); assay type: functional;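 also: cells exposed to compound for about 90 hours before reading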
[14] = growth suppression of beta-catenin-knockout colon cells, dose response, cell-based, HCT116, human colon tumor (AID 1045); assay type: functional;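 also: HCT116 colon tumor cells with beta catenin knocked out; cells exposed to compound for 60 hours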
[15] = molecular target: T2, Ubiquitin-conjugating enzyme E2 N (Homo sapiens, UniProt P61088); assay type: functional;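 also: Dose-response confirmation in a TR-FRET assay detecting UBC13-driven polyubiquitin chain formation, inhibition measured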
T2 sequence (P61088 whole entry): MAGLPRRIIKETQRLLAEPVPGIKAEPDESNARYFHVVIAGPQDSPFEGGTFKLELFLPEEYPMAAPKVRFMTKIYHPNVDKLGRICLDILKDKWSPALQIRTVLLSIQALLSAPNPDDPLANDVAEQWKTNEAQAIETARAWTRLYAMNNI

[16] = molecular target: T3, Fatty acid synthase (Homo sapiens, UniProt P49327); test: FAS thioesterase domain inhibitors, dose response, biochemical, endpoint fluorescence intensity, uHTS hits (AID 624327); assay type: functional;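 also: fluorescence from hydrolysis of an O-methyl fluorescein acyl ester substrate by the enzyme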
[17] = molecular target: T3, Fatty acid synthase; test: FAS thioesterase domain inhibitors, dose response, biochemical, kinetic fluorescence intensity (AID 624326); assay type: functional;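 also: rate of fluorescence rise from hydrolysis of a fluorogenic O-methyl fluorescein ester substrate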
[18] = A cytotoxicity screen of small molecule inhibitors of the PhoP region in Salmonella typhi identified in the primary screen. [Related pubchem assays: 1850, 1864, 1985 ]; assay type: functional
[19] = tested on: INS1; test: beta cell apoptosis inhibitors, cytokine rescue, dose response, luminescence, retest (AID 449756); assay type: functional, cell-based; details: Rattus norvegicus;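 also: cell death triggered by IL-1 beta plus TNF-alpha plus IFN-gamma mixture; protective hits raise ATP signal compared with cytokine alone wells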
[20] = molecular target: T4, Leucine aminopeptidase (Plasmodium falciparum 3D7, UniProt Q8IL11); test: P. falciparum M17LAP inhibitors, primary screen, biochemical, fluorogenic H-Leu-NHMec substrate, 1536-well (AID 1619); assay type: functional
T4 sequence (Q8IL11 whole entry): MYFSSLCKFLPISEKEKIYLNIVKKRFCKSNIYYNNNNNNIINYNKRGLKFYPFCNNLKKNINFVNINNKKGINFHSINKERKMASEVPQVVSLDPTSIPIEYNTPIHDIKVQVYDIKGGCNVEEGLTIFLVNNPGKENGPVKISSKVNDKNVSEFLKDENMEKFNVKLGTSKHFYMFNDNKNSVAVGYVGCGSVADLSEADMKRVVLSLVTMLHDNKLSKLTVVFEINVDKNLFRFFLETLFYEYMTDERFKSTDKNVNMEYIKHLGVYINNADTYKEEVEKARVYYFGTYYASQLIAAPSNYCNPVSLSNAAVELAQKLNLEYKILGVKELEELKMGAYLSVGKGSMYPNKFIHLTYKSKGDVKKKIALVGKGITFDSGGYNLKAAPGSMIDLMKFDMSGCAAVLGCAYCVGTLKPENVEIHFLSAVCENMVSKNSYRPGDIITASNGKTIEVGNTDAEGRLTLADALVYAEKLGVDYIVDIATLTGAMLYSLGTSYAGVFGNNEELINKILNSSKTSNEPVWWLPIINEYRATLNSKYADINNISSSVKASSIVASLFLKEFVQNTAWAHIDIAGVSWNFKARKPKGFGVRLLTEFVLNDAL

[21] = molecular target: T5, Heat shock factor protein 1 (Mus musculus, UniProt P38532); test: HSF1 potentiators in luciferase reporter cells, confirmation, cell-based, NIH3T3, luminescence, dose retest (AID 435004); assay type: functional;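 also: stress induced by proteasome inhibitor MG132 added 30 min after compound; luciferase reporter driven by HSF1 response element in NIH3T3 cells; actives raise luminescence as potentiators of the MG132 stress response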
T5 sequence (P38532 whole entry): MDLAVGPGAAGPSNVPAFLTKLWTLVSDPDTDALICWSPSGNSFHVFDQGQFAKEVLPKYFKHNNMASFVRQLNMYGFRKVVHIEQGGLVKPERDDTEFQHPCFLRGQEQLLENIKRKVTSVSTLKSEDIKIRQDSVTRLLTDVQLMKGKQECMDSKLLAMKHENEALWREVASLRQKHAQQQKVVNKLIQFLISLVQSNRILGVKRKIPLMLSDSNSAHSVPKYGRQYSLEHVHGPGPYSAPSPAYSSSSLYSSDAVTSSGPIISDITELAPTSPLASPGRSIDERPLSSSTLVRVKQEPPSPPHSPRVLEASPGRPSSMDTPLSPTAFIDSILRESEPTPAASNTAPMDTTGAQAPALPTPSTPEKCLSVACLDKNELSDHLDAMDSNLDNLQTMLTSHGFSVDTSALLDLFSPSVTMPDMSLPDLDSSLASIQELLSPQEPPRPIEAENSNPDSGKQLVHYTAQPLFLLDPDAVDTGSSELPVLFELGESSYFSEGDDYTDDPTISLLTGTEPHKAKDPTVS

[22] = microbe, parasite or virus in culture; assay type: functional; details: Mycobacterium tuberculosis
[23] = Luminescence Cell-Based Dose Retest to Confirm Inhibitors of Cancer Stem Cells. [Related pubchem assays (depositor defined):AID2717, AID2721]; assay type: functional; details: Homo sapiens
[24] = molecular target: T6, DNA repair protein RAD52 homolog (Homo sapiens, UniProt P43351); assay type: functional, biochemical
T6 sequence (P43351 whole entry): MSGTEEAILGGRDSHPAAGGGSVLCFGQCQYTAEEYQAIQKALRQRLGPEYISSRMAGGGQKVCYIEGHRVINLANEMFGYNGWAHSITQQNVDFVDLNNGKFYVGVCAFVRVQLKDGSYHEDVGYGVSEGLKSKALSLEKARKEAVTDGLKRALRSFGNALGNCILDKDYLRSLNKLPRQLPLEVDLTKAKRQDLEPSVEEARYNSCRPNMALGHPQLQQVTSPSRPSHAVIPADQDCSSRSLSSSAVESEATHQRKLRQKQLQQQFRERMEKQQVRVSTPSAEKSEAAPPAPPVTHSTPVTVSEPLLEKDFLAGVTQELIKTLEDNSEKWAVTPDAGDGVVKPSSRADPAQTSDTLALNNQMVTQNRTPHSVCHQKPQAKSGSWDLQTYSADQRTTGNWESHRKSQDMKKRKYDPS

[25] = tested on: Streptococcus sp. 'group A'; test: growth inhibition of control SK(-) GAS strain, dose response, counter-screen for streptokinase expression inhibitor project, luminescence, kanamycin, BacTiterGlo, confirmation (AID 1900); assay type: functional, organism-based
[26] = molecular target: Induced myeloid leukemia cell differentiation protein Mcl-1 (Homo sapiens, UniProt Q07820); assay type: functional
[27] = tested on: Streptococcus; test: Group A Streptococcus viability loss, dose response, counter-screen for streptokinase expression inhibitor project, luminescence, BacTiterGlo (AID 1915); assay type: functional, organism-based;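 also: potency for reduction of bacterial viability or growth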

T3 sequence (P49327 whole entry, the tested form may be a part): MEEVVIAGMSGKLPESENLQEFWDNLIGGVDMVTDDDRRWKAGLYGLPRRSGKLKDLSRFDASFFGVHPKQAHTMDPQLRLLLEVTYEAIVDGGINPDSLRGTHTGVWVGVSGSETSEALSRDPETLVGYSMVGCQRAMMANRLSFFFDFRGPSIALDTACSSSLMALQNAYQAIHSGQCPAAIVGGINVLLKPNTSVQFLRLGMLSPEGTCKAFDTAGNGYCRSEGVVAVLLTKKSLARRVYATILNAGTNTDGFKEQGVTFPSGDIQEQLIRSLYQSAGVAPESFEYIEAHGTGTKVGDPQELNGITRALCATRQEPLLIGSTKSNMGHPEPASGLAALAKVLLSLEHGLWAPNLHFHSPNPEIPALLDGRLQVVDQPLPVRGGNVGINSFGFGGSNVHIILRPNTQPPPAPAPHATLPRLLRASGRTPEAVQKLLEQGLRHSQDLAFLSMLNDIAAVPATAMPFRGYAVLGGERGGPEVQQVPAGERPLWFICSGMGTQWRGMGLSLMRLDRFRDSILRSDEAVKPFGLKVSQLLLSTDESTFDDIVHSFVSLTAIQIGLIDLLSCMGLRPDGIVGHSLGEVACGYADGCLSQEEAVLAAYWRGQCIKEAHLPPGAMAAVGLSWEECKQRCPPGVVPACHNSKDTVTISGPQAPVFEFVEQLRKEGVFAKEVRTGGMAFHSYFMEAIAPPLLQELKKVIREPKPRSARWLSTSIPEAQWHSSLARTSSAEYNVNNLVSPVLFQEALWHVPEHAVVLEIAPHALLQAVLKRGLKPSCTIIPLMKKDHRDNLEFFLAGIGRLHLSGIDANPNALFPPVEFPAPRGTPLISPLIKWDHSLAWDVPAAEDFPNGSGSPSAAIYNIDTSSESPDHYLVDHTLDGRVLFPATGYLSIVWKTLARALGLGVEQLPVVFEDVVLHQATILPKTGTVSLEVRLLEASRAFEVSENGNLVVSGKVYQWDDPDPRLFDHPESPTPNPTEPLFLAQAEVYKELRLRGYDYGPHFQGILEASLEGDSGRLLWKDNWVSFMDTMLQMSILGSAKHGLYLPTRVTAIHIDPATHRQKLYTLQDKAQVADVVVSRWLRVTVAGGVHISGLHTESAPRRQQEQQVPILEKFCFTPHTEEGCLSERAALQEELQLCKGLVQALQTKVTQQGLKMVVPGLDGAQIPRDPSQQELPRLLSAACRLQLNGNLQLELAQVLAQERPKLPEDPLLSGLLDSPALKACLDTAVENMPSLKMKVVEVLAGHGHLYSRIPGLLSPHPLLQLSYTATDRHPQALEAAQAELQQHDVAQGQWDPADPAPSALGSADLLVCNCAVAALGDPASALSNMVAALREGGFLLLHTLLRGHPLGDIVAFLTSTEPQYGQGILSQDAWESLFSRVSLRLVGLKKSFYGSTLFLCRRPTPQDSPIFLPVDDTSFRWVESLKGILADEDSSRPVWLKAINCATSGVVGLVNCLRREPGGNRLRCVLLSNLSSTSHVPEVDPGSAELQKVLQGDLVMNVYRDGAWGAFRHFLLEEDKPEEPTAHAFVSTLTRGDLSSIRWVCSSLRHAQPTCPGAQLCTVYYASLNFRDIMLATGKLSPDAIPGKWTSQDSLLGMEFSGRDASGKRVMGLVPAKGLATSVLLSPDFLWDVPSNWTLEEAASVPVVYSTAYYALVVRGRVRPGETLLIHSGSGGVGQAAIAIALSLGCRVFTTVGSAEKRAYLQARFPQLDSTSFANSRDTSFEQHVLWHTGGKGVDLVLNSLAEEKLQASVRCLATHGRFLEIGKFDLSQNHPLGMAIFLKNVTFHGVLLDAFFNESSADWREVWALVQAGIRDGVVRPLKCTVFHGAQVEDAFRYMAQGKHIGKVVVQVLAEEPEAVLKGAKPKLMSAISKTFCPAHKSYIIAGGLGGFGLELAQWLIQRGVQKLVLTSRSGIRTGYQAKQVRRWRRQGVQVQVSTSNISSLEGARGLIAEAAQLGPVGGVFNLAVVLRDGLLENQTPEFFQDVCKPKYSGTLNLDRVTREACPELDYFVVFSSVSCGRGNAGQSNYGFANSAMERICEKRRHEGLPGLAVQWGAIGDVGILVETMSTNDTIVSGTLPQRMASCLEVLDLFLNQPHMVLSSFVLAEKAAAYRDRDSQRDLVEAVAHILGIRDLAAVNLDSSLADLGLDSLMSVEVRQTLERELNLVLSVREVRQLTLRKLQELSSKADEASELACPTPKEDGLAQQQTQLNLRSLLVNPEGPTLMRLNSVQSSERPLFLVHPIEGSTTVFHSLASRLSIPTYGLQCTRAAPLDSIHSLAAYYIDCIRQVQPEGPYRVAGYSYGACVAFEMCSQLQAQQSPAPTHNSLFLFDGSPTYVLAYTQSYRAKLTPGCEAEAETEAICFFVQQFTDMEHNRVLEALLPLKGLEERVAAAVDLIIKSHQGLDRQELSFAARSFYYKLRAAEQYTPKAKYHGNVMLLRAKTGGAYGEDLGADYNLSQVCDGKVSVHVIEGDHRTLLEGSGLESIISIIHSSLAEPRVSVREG
Chain of Induced myeloid leukemia cell differentiation protein Mcl-1 (Q07820 whole entry): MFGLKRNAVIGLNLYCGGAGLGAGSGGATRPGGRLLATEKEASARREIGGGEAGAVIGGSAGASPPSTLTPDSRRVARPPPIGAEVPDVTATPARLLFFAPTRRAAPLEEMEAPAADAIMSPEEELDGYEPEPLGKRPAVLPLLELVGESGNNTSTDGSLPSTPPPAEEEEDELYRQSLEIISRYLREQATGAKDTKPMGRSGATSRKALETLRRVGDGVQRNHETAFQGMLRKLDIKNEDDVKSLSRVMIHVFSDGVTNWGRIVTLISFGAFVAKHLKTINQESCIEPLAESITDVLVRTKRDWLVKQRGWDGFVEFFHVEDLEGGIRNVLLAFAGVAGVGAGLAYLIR

Compound: CCN(CC(=O)NCc1ccc(F)cc1)C(=O)/C=C/c1ccc(OC)c(S(=O)(=O)NC(C)C)c1
- EC50 [1]: > 120 µM (not active)
- EC50 [2]: 9.24 µM (inconclusive)
- EC50 [3]: > 120 µM (not active)
- EC50 [4]: 9.81 µM (active)
- EC50 [5]: 13.4 µM (active)
- EC50 [6]: 4.34 µM (inconclusive)
- EC50 [7]: 13.7 µM (inconclusive)

Compound: O=C(Oc1ccc2c(c1)OCO2)C12CC3CC(CC(C3)C1)C2
- IC50 [8]: 5.49 µM (not active)

Compound: CN(C)c1ccc(CNC(=O)CCS(=O)(=O)c2ccc3c(c2)oc(=O)n3C)cc1
- EC50 [9]: > 350 µM (not active)
- EC50 [10]: > 350 µM (not active)

Compound: CCc1ccc(OCC(O)CN2CCC(CN3C(=O)c4cccc5cccc(c45)C3=O)CC2)cc1 (stereo unspecified)
- EC50 [11]: 1.84 µM (active)
- EC50 [12]: 6.53 µM (active)
- EC50 [13]: > 60 µM (not active)
- EC50 [14]: 5.43 µM (active)
- IC50 [15]: > 20 µM (inactive)

Compound: O=C(CN(Cc1ccc(F)cc1)C(=O)CCC(=O)Nc1nccs1)NCC1CCCO1 (stereo unspecified)
- EC50 [9]: > 350 µM (not active)
- EC50 [10]: 35.3 µM (active)

Compound: CC(C(=O)NCCC1=CCCCC1)c1ccc([N+](=O)[O-])cc1 (stereo unspecified)
- IC50 [16]: 5.76 µM (active)
- IC50 [17]: 5.99 µM (active)

Compound: S=C(Nc1ccccc1Cl)N(Cc1ccccc1)Cc1ccccn1
- EC50 [18]: > 50 µM (active)

Compound: c1ccc(CN2CCC(N3CCN(Cc4ccc5c(c4)OCO5)CC3)CC2)cc1
- EC50 [18]: > 50 µM (active)

Compound: COc1ccc([N+](=O)[O-])cc1NC(=O)C(C)OC(=O)/C=C/c1ccco1 (stereo unspecified)
- IC50 [16]: 3.26 µM (active)
- IC50 [17]: 6.45 µM (active)

Compound: CCOC(=O)c1c(NC(=O)c2cc(-c3ccc(Cl)s3)nc3ccccc23)sc(C(N)=O)c1C
- EC50 [12]: 5.74 µM (active)
- EC50 [14]: 7.35 µM (active)
- AC50 [19]: 7.98 µM (active)

Compound: Cc1cc(OCC(=O)Nc2ccc3c(c2)OCCO3)cc(C)c1Cl
- EC50 [9]: > 350 µM (not active)
- EC50 [10]: > 350 µM (not active)

Compound: O=C(O)CC12C[C@H]3C[C@@H](C1)CC(n1ncc(N4CCN(c5ccccc5)CC4)c(Cl)c1=O)(C3)C2
- IC50 [20]: 152 µM (active)
- EC50 [21]: > 260 µM (inactive)

Compound: CCCCNC(=O)CCC(=O)Nc1ccc2nc(N3CCC(C)CC3)cc(C)c2c1
- EC50 [18]: > 50 µM (active)

Compound: O=C(CN1C(=O)CCSc2ccccc21)Nc1ccc2c(c1)OCCO2
- IC50 [20]: 16.1 µM (active)

Compound: COc1ccccc1C1c2ccc3ccccc3c2Oc2ncn(CCN(C)C)c(=N)c21 (stereo unspecified)
- CC50 [22]: 5.8 µM (active)
- AC50 [23]: 2.72 µM (active)
- AC50 [24]: 20.6 µM (active)

Compound: O=C(CN1C(=O)S/C(=C/C=C/c2ccccc2)C1=O)Nc1ccc(C(=O)O)cc1
- IC50 [20]: 24.5 µM (active)

Compound: CCCCCC(=O)NNC(=S)NC(=O)c1cccc([N+](=O)[O-])c1
- IC50 [20]: 24.4 µM (active)
- EC50 [9]: > 350 µM (not active)
- EC50 [10]: > 350 µM (not active)

Compound: CCN(CC)CCNc1nc(-c2cccs2)c(CC(=O)O)s1
- AC50 [24]: 14 µM (active)

Compound: CSCCC(NC(=O)c1c(C)oc2c1CCCC2)C(=O)O (stereo unspecified)
- IC50 [20]: 35.9 µM (active)

Compound: CC1Cc2ccccc2N1C(=O)COC(=O)C1(c2ccccc2F)CCCC1 (stereo unspecified)
- IC50 [8]: 7.23 µM (not active)

Compound: CCOc1c(Br)cc(CNc2ccc3c(c2)OCCO3)cc1OC
- EC50 [1]: 4.32 µM (active)
- EC50 [2]: 2.12 µM (active)
- EC50 [3]: 3.63 µM (active)
- EC50 [4]: 0.31 µM (active)
- EC50 [5]: 17.7 µM (active)
- EC50 [6]: 1.41 µM (inconclusive)
- EC50 [7]: 1.29 µM (active)

Compound: Cc1cccc(NS(=O)(=O)c2ccc3c(c2)OCCO3)c1
- EC50 [18]: > 50 µM (active)

Compound: Cc1c(OCC(=O)NC(Cc2ccc(Cl)cc2)C(=O)O)ccc2c(-c3ccccc3)cc(=O)oc12 (stereo unspecified)
- IC50 [16]: 6.45 µM (active)
- IC50 [17]: 13.3 µM (active)

Compound: CCN1CCN(CCCNC(=O)C2CCN(c3nnc(-n4c(C)ccc4C)s3)CC2)CC1
- AC50 [24]: 9.22 µM (active)

Compound: NC1(C(=O)O)CCCc2ccc(N(CCCl)CCCl)cc21 (stereo unspecified)
- AC50 [24]: 16 µM (active)

Compound: O=C(O)c1ccc(N/N=C/c2ccc(-c3ccc(Cl)cc3Cl)o2)cc1
- EC50 [25]: 1.46 µM (active)
- IC50 [26]: 3.56 µM (active)
- EC50 [27]: 2.33 µM (active)
- IC50 [16]: 7.07 µM (active)
- IC50 [17]: 3.65 µM (active)

Compound: O=C(N/N=C/c1ccc(N2CCCC2)c([N+](=O)[O-])c1)c1cccnc1
- EC50 [18]: > 50 µM (active)

Compound: O=C(Cn1cc(/C=N/O)c2ccccc21)N1CCOCC1
- IC50 [20]: 78.9 µM (active)
